Tests used:
Coniphora puteana = test: Agar medium colony growth inhibition test on Coniphora puteana; type: cell-based; conditions: 0.2 ppm in potato dextrose agar, 25° C., colony diameter on the seventh day vs control
Procedure: A predetermined amount of the solutions diluted with dimethylsulfoxide were fully mixed in the sterilized potato dextrose agar medium, and 15 ml of the resultant medium was poured into a petri dish 90 mm in diameter and allowed to stand at room temperature. As a control, the potato dextrose agar medium added with dimethylsulfoxide only was also prepared. […] The fungi was cultivated in the petri dish at 25° C., and the diameter of the colony spread from the source of inoculum was measured on the seventh day. The growth inhibition ratio between the diameter of the test colony and that of the control was determined by the following formula as an indication of the degree of inhibition. Compound A apparently had greater effects on Coniphora puteana compared to the compounds which had been disclosed in the past. Growth inhibition ratio (%)={(diameter of the control colony−diameter of the test colony)/diameter of the control colony}×100 [Formula 1]

Trametes versicolor = test: Agar medium colony growth inhibition test on Trametes versicolor, with Colby synergy calculation; type: cell-based; conditions: single compound, 0.2 ppm, potato dextrose agar, 25° C., seventh day
Procedure: Each of 1% w/v dimethylsulfoxide solution of compound A, cyproconazole (manufactured by Wako Pure Chemical Industries, Ltd.), epoxyconazole (manufactured by Wako Pure Chemical Industries, Ltd.) and tetraconazole (manufactured by Wako Pure Chemical Industries, Ltd.) was prepared. The solutions diluted with dimethylsulfoxide were fully mixed in the sterilized potate dextrose agar medium, and 15 ml of the resultant medium was poured into a petri dish 90 mm in diameter and allowed to stand at room temperature. As a control, the potate dextrose agar medium added with dimethylsulfoxide only was also prepared. After the medium was solidified, the mycelia was scooped with the medium from the colony of Trametes versicolor as being a typical wood-decaying fungi, which had been cultivated in advance, using a cork baller 5 mm in diameter; and inoculated in the center of the test medium. The fungi was cultivated in the petri dish at 25° C., and the diameter of the colony spread from the source of inoculum was measured on the seventh day. The growth inhibition ratio by comparing the diameter of the test colony to that of the control was determined by the above-mentioned formula as an indication of the actual measured growth inhibition ratio. The theoretical efficacy ratio of the mixture of the active ingredients (i.e. theoretical growth inhibition ratio) was determined using the following Colby's formula (R. S. Colby, Weeds 15, 20-22 (1967)) to thereby be compared with the actual-measured efficacy ratio ([…]).
Colby's formula: E=x+y−x·y/100 [Formula 2]
E: theoretical efficacy ratio (theoretical growth inhibition ratio) represented by the ratio (%) to the control when the mixture of active compound B (concentration b) and C (concentration c) was used. x: efficacy ratio (growth inhibition ratio) represented by the ratio (%) to the control when active compound B was used at a concentration of b. y: efficacy ratio (growth inhibition ratio) represented by the ratio (%) to the control when active compound C was used at a concentration of c.

Row | Compound | Degree of inhibition on Coniphora puteana at 0.2 ppm (Coniphora puteana) | other results
1 | O=C(Nc1ccccc1)c1ccccc1C(F)(F)F [compound 8, 2-trifloromethyl benzoic acid anilide] | x (inhibition ratio of 25% or less) | 
2 | O=C(Nc1cccc(OC(F)(F)F)c1)c1ccccc1C(F)(F)F [compound 14, 3′-trifluoromethoxy-2-trifloromethyl benzoic acid anilide] | x (inhibition ratio of 25% or less) | 
3 | CC(C)c1cccc(NC(=O)c2ccccc2[N+](=O)[O-])c1 [compound 6, 3′-isopropyl-2-nitrobenzoic acid anilide] | x (inhibition ratio of 25% or less) | 
4 | O=C(Nc1cccc(C(F)(F)F)c1)c1ccccc1C(F)(F)F [compound 13, 2,3′-trifluoromethyl benzoic acid anilide] | x (inhibition ratio of 25% or less) | 
5 | Cc1ccccc1C(=O)Nc1cccc(OC(C)C)c1 [compound 2, 3′-isopropoxy-2-methyl benzoic acid anilide] | ▴ (inhibition ratio of 25 to 50%) | 
6 | FC(F)C(F)(F)OCC(Cn1cncn1)c1ccc(Cl)cc1Cl (stereo not shown) [Tetraconazole] |  | Actual measured growth inhibition ratio (%) (Trametes versicolor): 25%
7 | Cc1ccccc1C(=O)Nc1cccc(C(C)C)c1 [compound 3, 3′-isopropyl-2-methyl benzoic acid anilide] | ▴ (inhibition ratio of 25 to 50%) | 
8 | Cc1ccc(C(C)C)cc1NC(=O)c1ccccc1C(F)(F)F [compound 19, 5′-isopropyl-2′-methyl-2-trifluoromethyl benzoic acid anilide] | x (inhibition ratio of 25% or less) | 
9 | CC(C)c1ccccc1NC(=O)c1ccccc1C(F)(F)F [compound 9, 2′-isopropyl-2-trifloromethyl benzoic acid anilide] | x (inhibition ratio of 25% or less) | 
10 | O=C(Nc1cccc(F)c1)c1ccccc1C(F)(F)F [compound 15, 3′-fluoro-2-trifloromethyl benzoic acid anilide] | x (inhibition ratio of 25% or less) | 
11 | O=C(Nc1cccc(I)c1)c1ccccc1C(F)(F)F [compound 18, 3′-iodo-2-trifloromethyl benzoic acid anilide] | x (inhibition ratio of 25% or less) | 
12 | CC(C)Oc1cccc(NC(=O)c2ccccc2I)c1 [compound 5, 3′-isopropoxy-2-iodobenzoic acid anilide] | ▴ (inhibition ratio of 25 to 50%) | 
13 | CCc1cccc(NC(=O)c2ccccc2C(F)(F)F)c1 [compound 12, 3′-ethyl-2-trifloromethyl benzoic acid anilide] | ▴ (inhibition ratio of 25 to 50%) | 
14 | CC(C)Oc1cccc(NC(=O)c2ccccc2C(F)(F)F)c1 [compound 1, 3′-isopropoxy-2-trifloromethyl benzoic acid anilide] | ▴ (inhibition ratio of 25 to 50%) | 
15 | CC(C)c1cccc(NC(=O)c2ccccc2Br)c1 [compound 7, 3′-isopropyl-2-bromobenzoic acid anilide] | ▴ (inhibition ratio of 25 to 50%) | 
16 | CC(C1CC1)C(O)(Cn1cncn1)c1ccc(Cl)cc1 (stereo not shown) [cyproconazole] |  | Actual measured growth inhibition ratio (%) (Trametes versicolor): 33%
17 | CC(C)c1cccc(NC(=O)c2ccccc2C(F)(F)F)c1 [Compound A, 3′-isopropyl-2-trifluoromethyl benzoic acid anilide] |  | melting point: 98 to 101 °C; Actual measured growth inhibition ratio (%) (Trametes versicolor): 35%; inhibition at 0.2 ppm (Coniphora puteana; read-out: Degree of inhibition on Coniphora puteana at 0.2 ppm): ≥ 75%
18 | O=C(Nc1cccc(Br)c1)c1ccccc1C(F)(F)F [compound 17, 3′-bromo-2-trifloromethyl benzoic acid anilide] | x (inhibition ratio of 25% or less) | 
19 | O=C(Nc1cccc(Cl)c1)c1ccccc1C(F)(F)F [compound 16, 3′-chloro-2-trifloromethyl benzoic acid anilide] | x (inhibition ratio of 25% or less) | 
20 | Fc1ccc([C@]2(Cn3cncn3)O[C@H]2c2ccccc2Cl)cc1 (racemic) [Epoxiconazole] |  | Actual measured growth inhibition ratio (%) (Trametes versicolor): 24%
21 | CC(C)c1cccc(NC(=O)c2ccccc2I)c1 [compound 4, 3′-isopropyl-2-iodobenzoic acid anilide] | ▴ (inhibition ratio of 25 to 50%) | 
22 | CC(C)c1ccc(NC(=O)c2ccccc2C(F)(F)F)cc1 [compound 10, 4′-isopropyl-2-trifloromethyl benzoic acid anilide] | x (inhibition ratio of 25% or less) | 
23 | Cc1cccc(NC(=O)c2ccccc2C(F)(F)F)c1 [compound 11, 3′-methyl-2-trifloromethyl benzoic acid anilide] | ▴ (inhibition ratio of 25 to 50%) | 

— US20110256238A1, “WOOD PRESERVATIVE AND WOOD PROCESSING METHOD” (SDS BIOTECH K.K., priority 2008, published 2011)
